This passage reports melting point results from US6492520B1, “Substituted pyrido-or pyrimido-containing 6,6- or 6,7-bicyclic derivatives” (Pfizer Inc, priority 1996, dated 2002).

Compound `CCC(CC)N1CCNc2c1cc(C)nc2Oc1c(C)cc(C)cc1C` [Example 4, 1-(1-Ethyl-propyl)-7-methyl-5-(2,4,6-trimethyl-phenoxy)-1,2,3,4-tetrahydro-pyrido[3,4-b]pyrazine] returned a melting point of 138 to 140 °C.
